Nine compounds from patent US11932637B2, “Chromane amidine monobactam compounds for the treatment of bacterial infections” (priority 2021, dated 2024) can be followed below.

Common to all, as to format: cell-based
Assay [1] relates to Pseudomonas aeruginosa expressing AmpC (CL5701). The assay is described as follows: Antibiotic activity: growth inhibitory concentration (OD600), P. aeruginosa CL5701. As to conditions: concentration inhibiting 95% of bacterial growth, with BLi Relebactam 4 μg/mL, 22 hours. The protocol: (§1) Biological Assays Antibiotic Activity: Determination of Growth Inhibitory Concentration The concentrations of compounds required to inhibit the growth of various strains of bacteria were determined in an assay that assessed bacterial growth by measuring optical density at 600 nm (OD600). The bacterial strains tested included the clinical strains Escherichia coli expressing NDM-1 (CLB30016), Klebsiella pneumoniae expressing KPC-1 (CL6569), Acinetobacter baumannii expressing TEM-1, AmpC, and Oxa-24/40 (CL6188) and Pseudomonas aeruginosa expressing AmpC (CL5701). All compounds were tested in the presence of a β lactamase inhibitor (BLi, Relebactam) in 384-well microplates.
(§2) The clinical strains were stored as frozen single use stocks, thawed and diluted into 1.1× cation-adjusted Mueller-Hinton II broth to achieve approximately 2×10^5 CFU/mL. Test compounds were dissolved in DMSO and diluted 1:50 in the assay, resulting in a final concentration range of 100 μM to 0.098 μM. On the day of the assay, 1 μL of test compound was added to the plate followed by 4 μL of 50 μg/mL BLi in MOPS buffer and 45 μL of diluted bacteria. Plates were centrifuged at 1000 rpm for 30 seconds, shaken at approximately 800 rpm for 1 minute, and incubated at 35 t 2° C. for 22 hours. The concentration of BLi used in the assay was 4 μg/mL. At the end of the incubation, absorbance at 600 nm was determined using a spectrophotometer. Inhibition was quantitated by identifying the lowest concentration of test compound that was required to inhibit 95% of the growth of the bacteria.

In assay [2] the test system is Acinetobacter baumannii expressing TEM-1, AmpC, and Oxa-24/40 (CL6188). As to conditions: concentration inhibiting 95% of bacterial growth; with BLi Relebactam 4 μg/mL; 22 hours; OD600. On the procedure:
as §1, §2

Assay [3] concerns Escherichia coli expressing NDM-1 (CLB30016). The assay is described as follows: Antibiotic activity: growth inhibitory concentration (OD600), E. coli CLB30016. As to conditions: concentration inhibiting 95% of bacterial growth, with BLi Relebactam 4 μg/mL, 22 hours. The protocol:
as §1, §2

`CC1(C)[C@H](NC(=O)/C(=N\O[C@](C)(C(=O)O)[C@H]2CCc3cc(C(=N)N[C@H]4C[C@]5(CCNC5)C4)ccc3O2)c2csc(N)n2)C(=O)N1OS(=O)(=O)O` [Compound 22, (S)-2-((R)-6-(N-((2r,4S)-6-azaspiro[3.4]octan-2-yl)carbamimidoyl)chroman-2-yl)-2-((((Z)-1-(2-aminothiazol-4-yl)-2-(((S)-2,2-dimethyl-4-oxo-1-(sulfooxy)azetidin-3-yl)amino)-2-oxoethylidene)amino)oxy)propanoic acid]: in assay [1], the “PA_CL5701 MITC95” value worked out at 1.563 µM. Take `CC1(C)[C@H](NC(=O)/C(=N\O[C@](C)(C(=O)O)[C@H]2CCc3cc(C(=N)N[C@H]4C[C@](N)(CC(O)CO)C4)ccc3O2)c2csc(N)n2)C(=O)N1OS(=O)(=O)O` (stereo partly drawn) [Compound 96, (S)-2-((R)-6-(N-((1R,3S)-3-amino-3-((S)-2,3-dihydroxypropyl)cyclobutyl)-carbamimidoyl)chroman-2-yl)-2-((((Z)-1-(2-aminothiazol-4-yl)-2-(((S)-2,2-dimethyl-4-oxo-1-(sulfooxy)azetidin-3-yl)amino)-2-oxoethylidene)amino)oxy)propanoic acid]: in assay [2], the “AB_CL6188 MITC95” value worked out at 6.25 µM. In addition, the “PA_CL5701 MITC95” value in assay [1] came out at 1.563 µM. For the compound `COCc1c(C(=N)N[C@H]2C[C@@H](N)C2)ccc2c1CC[C@H]([C@](C)(O/N=C(\C(=O)N[C@@H]1C(=O)N(OS(=O)(=O)O)C1(C)C)c1csc(N)n1)C(=O)O)O2` [Compound 124, (S)-2-((R)-6-(N-((1s,3S)-3-aminocyclobutyl)carbamimidoyl)-5-(methoxymethyl)chroman-2-yl)-2-((((Z)-1-(2-aminothiazol-4-yl)-2-(((S)-2,2-dimethyl-4-oxo-1-(sulfooxy)azetidin-3-yl)amino)-2-oxoethylidene)amino)oxy)propanoic acid], in assay [1], the “PA_CL5701 MITC95” value was 3.125 µM. For the same compound, the “EC_CLB30016 MITC95” value in assay [3] came to 50 µM. For `CC1(C)[C@H](NC(=O)/C(=N\O[C@](C)(C(=O)O)[C@H]2CCc3cc(C(=N)NC4CC(N)(C[C@H](O)CO)C4)ccc3O2)c2csc(N)n2)C(=O)N1OS(=O)(=O)O` (stereo partly drawn) [Compound 94, (S)-2-((R)-6-(N-((1S,3R)-3-amino-3-((S)-2,3-dihydroxypropyl)cyclobutyl)carbamimidoyl)chroman-2-yl)-2-((((Z)-1-(2-aminothiazol-4-yl)-2-(((S)-2,2-dimethyl-4-oxo-1-(sulfooxy)azetidin-3-yl)amino)-2-oxoethylidene)amino)oxy)propanoic acid], the “AB_CL6188 MITC95” value in assay [2] is 6.25 µM. Also, the “PA_CL5701 MITC95” value in assay [1] turned out to be 1.563 µM.

For `COC[C@]1(NC(=N)c2ccc3c(c2)CC[C@H]([C@](C)(O/N=C(\C(=O)N[C@@H]2C(=O)N(OS(=O)(=O)O)C2(C)C)c2csc(N)n2)C(=O)O)O3)CC[C@H](N)CC1` [Compound 127, (S)-2-((R)-6-(N-((1r,4R)-4-amino-1-(methoxymethyl)cyclohexyl)carbamimidoyl)chroman-2-yl)-2-((((Z)-1-(2-aminothiazol-4-yl)-2-(((S)-2,2-dimethyl-4-oxo-1-(sulfooxy)azetidin-3-yl)amino)-2-oxoethylidene)amino)oxy)propanoic acid], the “PA_CL5701 MITC95” value in assay [1] is 3.125 µM. For the compound `COC[C@]1(NC(=N)c2ccc3c(c2)CC[C@H]([C@](C)(O/N=C(\C(=O)N[C@@H]2C(=O)N(OS(=O)(=O)O)C2(C)C)c2csc(N)n2)C(=O)O)O3)CC[C@@H](N)CC1` [Compound 126, (S)-2-((R)-6-(N-((1s,4S)-4-amino-1-(methoxymethyl)cyclohexyl)carbamimidoyl)chroman-2-yl)-2-((((Z)-1-(2-aminothiazol-4-yl)-2-(((S)-2,2-dimethyl-4-oxo-1-(sulfooxy)azetidin-3-yl)amino)-2-oxoethylidene)amino)oxy)propanoic acid], the “PA_CL5701 MITC95” value in assay [1] came to 6.25 µM. The “EC_CLB30016 MITC95” value in assay [3] is 25 µM.

As for `CC1(C)[C@H](NC(=O)/C(=N\O[C@](C)(C(=O)O)[C@H]2CCc3cc(C(=N)N[C@H]4C[C@@H](N)C4)ccc3O2)c2csc(N)n2)C(=O)N1OS(=O)(=O)O` [Compound 7, (S)-2-((R)-6-(N-((1 s,3S)-3-aminocyclobutyl)carbamimidoyl)chroman-2-yl)-2-((((Z)-1-(2-aminothiazol-4-yl)-2-(((S)-2,2-dimethyl-4-oxo-1-(sulfooxy)azetidin-3-yl)amino)-2-oxoethylidene)amino)oxy)propanoic acid], the “PA_CL5701 MITC95” value in assay [1] amounted to 1.563 µM. In the case of `CC1(C)[C@H](NC(=O)/C(=N\O[C@](C)(C(=O)O)[C@H]2CCc3cc(C(=N)N[C@H]4C[C@@](N)(C[C@@H](O)CO)C4)ccc3O2)c2csc(N)n2)C(=O)N1OS(=O)(=O)O` [Compound 95, (S)-2-((R)-6-(N-((1R,3R)-3-amino-3-((R)-2,3-dihydroxypropyl)cyclobutyl)carbamimidoyl)chroman-2-yl)-2-((((Z)-1-(2-aminothiazol-4-yl)-2-(((S)-2,2-dimethyl-4-oxo-1-(sulfooxy)azetidin-3-yl)amino)-2-oxoethylidene)amino)oxy)propanoic acid], in assay [1], the “PA_CL5701 MITC95” value is 1.563 µM. Further, the “EC_CLB30016 MITC95” value in assay [3] amounted to 6.25 µM. Regarding `CC1(C)[C@H](NC(=O)/C(=N\O[C@](C)(C(=O)O)[C@H]2CCc3cc(C(=N)N[C@H]4C[C@@]5(CCNC5)C4)ccc3O2)c2csc(N)n2)C(=O)N1OS(=O)(=O)O` [Compound 23, (S)-2-((R)-6-(N-((2s,4R)-6-azaspiro[3.4]octan-2-yl)carbamimidoyl)chroman-2-yl)-2-((((Z)-1-(2-aminothiazol-4-yl)-2-(((S)-2,2-dimethyl-4-oxo-1-(sulfooxy)azetidin-3-yl)amino)-2-oxoethylidene)amino)oxy)propanoic acid], in assay [2], the “AB_CL6188 MITC95” value amounted to 6.25 µM. For the same compound, the “PA_CL5701 MITC95” value in assay [1] was found to be 3.125 µM. Moreover, in assay [3], the “EC_CLB30016 MITC95” value was 6.25 µM.
